The record followed here is PMC9964404, “Molecular Modeling and In Vitro Evaluation of Piplartine Analogs against Oral Squamous Cell Carcinoma” (Molecules, 2023).

For data set [1], the system named is SCC9 cells. Description: MTT cell viability (cytotoxicity) assay, SCC9. The data set is classed as cell-based, human. The following applies: Homo sapiens. As for the experimental part:
(§1) SCC cells (SCC9 and SCC4), derived from human tongue OSCC, were obtained by (ATCC® CRL-1629 and CRL-1624) and maintained in DMEM/F12 1:1 medium (Dulbecco’s modified Eagle’s medium and Ham’s F12 medium, Gibco (Thermo Fisher, Waltham, MA, USA), supplemented with 10% (v/v) FBS (Fetal Bovine Serum; Invitrogen, Thermo Fisher, Waltham, MA, USA) and 400 ng/mL hydrocortisone (Sigma-AldrichCo., St. Louis, MO, USA). Primary normal gingival fibroblast human (PCS201 018TM) and other tumor cells B16-F10 (CRL-6475), Hep G2 (HB-8065), and HT-29 (HTB-38) were also obtained at ATCC and maintained in DMEM supplemented with 10% (v/v) FCS. Cells were cultured in a humidified environment containing 5% CO2 at 37 °C. For all experiments, the compounds were solubilized in DMSO (Sigma-Aldrich) for a final concentration of 100 mM. From this dilution, other concentrations were made to carry out the cell viability assay. Carboplatin (Fauldcarbo®; Libbs Farmacêutica, São Paulo, SP, Brazil) was used as a control antitumor compound.
(§2) The viability of cancer cells and primary fibroblasts was tested using the MTT assay as described in MACHADO et al., 2021 [49]. Briefly, cancer cells (5 × 10^3 cells/well) were plated in duplicate in a 96-well plate, as indicated. DMSO was diluted in culture medium at the same concentrations and was used as a negative control, representing 100% cell viability. After 48 h of treatment, cells were incubated for 3.5 h with 5 mg/mL of MTT reagent (3,4,5-dimethiazol-2,5-diphenyltetrazoliumbromide) (Sigma-Aldrich Co., St. Louis, MO, USA) diluted in culture medium. Subsequently, the formazan crystals were dissolved by MTT solvent (50% Methanol and 50% DMSO), and the absorbance was read at 560 nm using the EPOCH microplate spectrophotometer (BioTekInstruments, Winooski, VT, USA).
(§3) IC50 values for the MTT assay were obtained by non-linear regression using GraphPad Prism 5.0 software (GraphPad, San Diego, CA, USA) from at least three independent experiments. Data are presented as means, ± standard deviation (SD). A log dose response (inhibitor) vs. response curve using the least square method was used to determine the IC50 and SD of the data. The selectivity index was calculated as: S.I. = IC50 of the compound in fibroblasts/IC50 of the same compound in tumor cells.

The subject of data set [2] is Primary Gingival Fibroblast. Description: MTT cell viability assay, normal fibroblasts. The data set is classed as cell-based, human. Conditions: Homo sapiens, Fibroblast, 48 h treatment. As for the experimental part: as §1, §2, §3
On the technique in general: Formazan colour is commonly taken as a measure of viable cells.

In a further data set the test system is SCC4 cells. Description: MTT cell viability assay, SCC4. In kind it is cell-based, human. The following applies: Homo sapiens, SCC-4, 48 h treatment, read-out: SCC4 IC50. The protocol:
as §1, §2, §3

In data set [3] the test system is Oral Tumor Cells (SCC9, SCC4). Description: MTT cell viability assay, average of OSCC lines SCC9 and SCC4. The data set is classed as cell-based, human. The following applies: Homo sapiens. As for the experimental part:
as §1, §2
(§4) IC50 values for the MTT assay were obtained by non-linear regression using GraphPad Prism 5.0 software (GraphPad, San Diego, CA, USA) from at least three independent experiments. […] The selectivity index was calculated as: S.I. = IC50 of the compound in fibroblasts/IC50 of the same compound in tumor cells.

In a further data set the test system is B16-F10 (melanoma). Kind of data set: MTT cell viability assay, B16-F10. The data set is classed as cell-based. The following applies: Mus musculus. The protocol:
as §1, with “For all experiments, the compounds were solubilized in DMSO (Sigma-Aldrich) for a final concentration of 100 mM. From this dilution, other concentrations were made to carry out the cell viability assay. Carboplatin (Fauldcarbo®; Libbs Farmacêutica, São Paulo, SP, Brazil) was used as a control antitumor compound.” left out
(§5) The viability of cancer cells and primary fibroblasts was tested using the MTT assay as described in MACHADO et al., 2021 [49]. […] Subsequently, the formazan crystals were dissolved by MTT solvent (50% Methanol and 50% DMSO), and the absorbance was read at 560 nm using the EPOCH microplate spectrophotometer (BioTekInstruments, Winooski, VT, USA).
as §4

The subject of the next data set is HEP G2 (hepatocarcinoma). Description: MTT cell viability assay, HEP G2. The data set is classed as cell-based. The protocol:
as §1, with “For all experiments, the compounds were solubilized in DMSO (Sigma-Aldrich) for a final concentration of 100 mM. From this dilution, other concentrations were made to carry out the cell viability assay. Carboplatin (Fauldcarbo®; Libbs Farmacêutica, São Paulo, SP, Brazil) was used as a control antitumor compound.” left out
as §5, §4

Data set [4] has as its system HT-29 (colon adenocarcinoma). Kind of data set: MTT cell viability assay, HT-29. The data set is classed as cell-based. As for the experimental part: as §1, with “For all experiments, the compounds were solubilized in DMSO (Sigma-Aldrich) for a final concentration of 100 mM. From this dilution, other concentrations were made to carry out the cell viability assay. Carboplatin (Fauldcarbo®; Libbs Farmacêutica, São Paulo, SP, Brazil) was used as a control antitumor compound.” left out
as §5, §4

The next data set can be described thus: Hemolysis assay. The data set is classed as cell-based. Conditions: human erythrocytes. The protocol:
Human blood was used as approved by the Research Ethics Committee of the Fluminense Federal University–Nova Friburgo, RJ (CAAE: 43134721.4.0000.5626). The erythrocytes were collected by centrifugation at 1500 rpm for 15 min, washed with PBS (phosphate buffer saline) and 10 mM glucose, and counted in an automatic cells counter (Thermo Fisher, Waltham, MA, USA). The erythrocytes were then plated in 96-well plates at a concentration of 4 × 10^8/well in triplicate, and 10 µL of the compounds were added at a final concentration of 1000 µM in PBS with glucose (final volume of 100 µL). Ten microliters of PBS were used as negative control and 10 µL of PBS with 0.1% Triton ×100 as a positive control. Data reading was performed with EPOCH (BioTek Instruments, Winooski, VT, USA) at 540 nm absorbance, and statistical data were generated with the GRAPHPAD Prism 5.0 program (Intuitive Software for Science, San Diego, CA, USA).

In data set [5] the test system is SCC9 cells. Kind of data set: Phosphatidylserine exposure analysis (annexin V-FITC / P.I., flow cytometry). The data set is classed as cell-based, human. Conditions: SCC9, 48 h. As for the experimental part: Cells of the SCC9 cell line were plated in six-well plates (5 × 10^5 cells/well), trypsinized 48 h after treatment, labeled using the Annexin V-FITC Apoptosis Detection Kit according to the manufacturer’s protocol (#BMS500FI/300, Invitrogen), and analyzed by flow cytometry.
Background: A flow cytometer gives signals particle by particle.

Data set [6] concerns SCC9 cells. Kind of data set: SubG1 analysis (propidium iodide DNA content). The data set is classed as cell-based, human. Conditions: SCC9, 48 h. As for the experimental part:
(§6) To evaluate the action of the compound 9 on the cell cycle, cells of the SCC9 lineage were plated in a six-well plate (5 × 10^5 cells/well) as described in LUCENA et al., 2016. After 48h of treatment, cells were trypsinized and stained with propidium iodide (75 µM; Sigma) in the presence of NP-40 (Sigma). DNA content was analyzed by collecting 10,000 events using a FACScalibur flow cytometer. Data were analyzed using CellQuest (BD Biosciences) and FlowJo (Tree Star Inc., Ashland, OR, USA) software. (Version 9.9.4).

Data set [7] deals with SCC9 cells. Description: Caspase 3/7 analysis (flow cytometry). The data set is classed as cell-based, human. Conditions: SCC9, 2 × IC50, 48 h. As for the experimental part:
For active caspase detection, 5 × 10^4 SCC9 cells were plated in a 24-well plate containing 1 mL of DMEM/F12 with 10% FBS per well. CellEvent™ Caspase-3/7 reagent (#R37111, Invitrogen) was diluted in culture medium according to the manufacturer’s instructions. Twenty-four hours after plating, cells were treated with Caspase-3/7 reagent and 2× IC50 of 9 or DMSO as a control. Cells were analyzed by flow cytometry after 48 h of treatment.

Data set [8] deals with SCC9 cells. Description: Cell cycle analysis (propidium iodide). The data set is classed as cell-based, human. The following applies: SCC9, 48 h. As for the experimental part:
as §6

A further data set deals with mouse erythrocytes. Kind of data set: Hemolytic activity in mouse erythrocytes. In kind it is cell-based. The following applies: mouse erythrocytes as printed.

Like-named read-outs stand apart in the source and are kept apart here.

In the case of `COc1ccc(COC(=O)c2cc(OC)c(OC)c(OC)c2)cc1` [Compound 9, 4-Methoxy-benzyl 3,4,5–trimethoxybenzoate], the IC50 in the data set with SCC9 cells [1] (SCC-9, 48 h, read-out: SCC9 IC50 (µg/mL)) came to 15.4 µg/mL; in the data set on SCC9 cells [1] (SCC-9, 48 h treatment, MTT, read-out: SCC9 IC50), 46.2 µM; in data set [2] (read-out: Primary Gingival Fibroblast IC50) it was 741 µM; in data set [2] (read-out: Primary Gingival Fibroblast IC50 (µg/mL)), 246 µg/mL; in the data set on SCC4 cells it was 49.8 µM; in data set [3], 48 µM. For the same compound, the IC50 in the data set with B16-F10 (melanoma) was 73.3 µM; in the data set on HEP G2 (hepatocarcinoma) (HEP G2) it was 6.63 µM; with HEP G2 (hepatocarcinoma) (Homo sapiens, HepG2, HEP G2), below 10 µM; in data set [4] (HT-29), 7.31 µM; in data set [4] (Homo sapiens, HT-29, HT-29), below 10 µM. The compound also had a hemolysis at 1000 µM in the data set “Hemolysis assay” below 1%. Further, the “annexin V single- and/or double-positive (PI+) labeling” value with SCC9 cells [5] is given as ~ 17%. Besides, the “increase in annexin V labeling versus control” value with SCC9 cells [5] is given as “four-fold increase”. In addition, the “DNA fragmentation (SubG1 DNA content)” value in the data set on SCC9 cells [6] was ~ 21%. Moreover, the “Active caspase 3/7” value with SCC9 cells [7] is on record as ~ 66%. For the same compound, the “Cycle Phase % G2/M” value with SCC9 cells [8] was ~ 59%. Besides, the hemolytic activity entry with mouse erythrocytes is on record as “did not reveal hemolytic activity”.
